Reference: patent publication US20240075088A1, “BIOACTIVE EXTRACTION METHOD” (Performance Labs Pte. Ltd., priority 2022, published 2024)

Test: DPPH radicals scavenging capacity assay
Format: biochemical
Procedure: DPPH radicals scavenging capacity assay: The ability of the plant extract to scavenge DPPH free radicals was assessed by using the method described by Takao et al. (Takao et al., 1994).
The stock solution of the plant extract was prepared in methanol to achieve the concentration of 2000 μg/ml. Further, two-fold dilutions were made to obtain concentrations of 1000, 500, 250, 125, 62.5, 31.25, 15.62 μg/ml. Diluted solutions of extract (2 ml each) were mixed with 2 ml of DPPH methanol solution (80 μg/ml). After 30 min in darkness at room temperature, the absorbance was read in a spectrophotometer at 517 nm. The control samples consisted of 2 ml of methanol added to 2 ml of DPPH solution. Caffeoylquinic acid and ascorbic acid was used as a positive control. The experiment was performed in triplicate. Scavenging activity is expressed as the inhibition percentage calculated using the following equation: Scavenging activity (%)=100×[Acontrol−Asample)/Acontrol)], where Acontrol is the absorbance of the control and Asample is the absorbance of the extract.
It was obtained from the graph of scavenging activity (%) versus concentration of samples. Low IC50 value indicates strong ability of the extract to act as DPPH scavenger.
To evaluate the antioxidant activity of different fractions, an assay method based on the reduction of DPPH was performed.

Row | DPPH antioxidant assay IC50 (concentration at which 50% of DPPH radicals were scavenged, DPPH methanol solution 80 μg/ml, 30 min in darkness, absorbance 517 nm, triplicate) | Compound | antioxidant activity (DPPH), conclusion in words (inferred from comparison of the 20% and 70% ethanol fractions)
1 | 59.4 µg/mL | O=C1O[C@H]([C@@H](O)CO)C(O)=C1O [Ascorbic Acid, ascorbic acid] | –
2 | – | Cn1c(=O)c2c(ncn2C)n(C)c1=O [caffeine] | did not contribute to antioxidant activity
